# Experimental data taken from PMC12284850, “In Silico Design of Antimicrobial Peptides against Carbapenem-Resistant Infections with Enhanced Activity by Nanoformulation” (ACS Applied Bio Materials, 2025).
# Where a SMILES comes first, the peptide text is derived from it.
# Tests used:
# Gram-positive bacteria = experiment: MIC against Gram-positive bacteria; format: cell-based; conditions: broth microdilution
# Method: (§1) The broth microdilution procedure involves preparing CAMHB broth, a bacterial suspension adjusted to McFarland 0.5 (1.5 × 10^8 CFU/mL) and diluted 200×, and a drug solution at 2× the final target concentration. To achieve a 400× final bacterial dilution, add 100 μL of the drug at different doses to a 96-well plate, then 100 μL of the diluted bacterial culture. Measure the initial absorbance (0 h), incubate at 37 °C for 16–18 h, and measure the final absorbance. With no change in absorbance, the MIC signifies the absence of bacterial growth.
# E. coil ATCC25922 = format: cell-based, E. coli
# Method: as §1
# HK-2 cells = experiment: Cytotoxicity assay (MTT); format: cell-based
# Method: (§2) We tested the cytotoxicity of several antibiotic compounds, including peptides and nanoparticles, on the human embryonic kidney cell lines HEK-293, HK-2, and […]. The cells were stored in DMEM medium and incubated at 37 °C with 5% CO2 in a humidifying environment. Using the MTT (methylthiazolyldiphenyl-tetrazolium bromide) test, cell viability was evaluated. Following a 5 × 10^3 cell/mL seeding in 96-well plates, the cells were exposed to 100 μL of samples at varying concentrations (12.5–200 μM) during 72 h at 37 °C. Later, each well is loaded with MTT solution (5 mg/mL in PBS) at a volume of 10 μL. The plates were left in the dark for 4 h. After forming formazan crystals due to the action of mitochondrial reductases in living cells, the crystals were dissolved using a solubilizing solution (pH 4.7, 40% dimethylformamide, 2% glacial acetic acid, and 16% sodium dodecyl sulfate) were shaken at 150 rpm and incubated for an hour at 37 °C. Using graphical plot analysis, the IC50 value–the concentration that results in 50% cell death–was obtained by measuring the absorbance of the dissolved formazan at 570 nm. The average of three independent tests, each carried out in triplicate, was used to display the results.
# CRAB isolate AB-01 = format: cell-based, A. baumannii
# Text: (§3) The blood samples of patients from Kaohsiung Medical University were used to collect and cryopreserve all of the CRAB clinical isolates. Analytical graded chemicals and reagents were utilized throughout the investigation. The T2–02 peptide (MW 2646.27 Da) was custom-synthesized by Kelowna International Scientific Inc., 1,2-[…]-sn-glycero-3-phosphoethanolamine-N-[methoxy(polyethylene glycol)-2000] (ammonium salt) (DSPE-PEG2000, MW 2693.285 Da) was purchased from Laysan Bio Inc., 1,2-Dioleoyl-sn-glycero-3-phosphocholine (DOPC, MW 786.1 Da) was acquired from BroadPharm, and Poly-L-lysine hydrobromide (30–70 kDa) was sourced from Sigma-Aldrich.
# as §1
# CRAB isolate AB-18 = format: cell-based, A. baumannii
# Text: as §3, §1
# CRAB isolate AB-11 = format: cell-based, A. baumannii
# Text: as §3, §1
# CRAB isolate AB-05 = format: cell-based, A. baumannii
# Text: as §3, §1
# CRAB isolate AB-07 = format: cell-based, A. baumannii
# Text: as §3, §1
# CRAB isolate AB-24 = format: cell-based, A. baumannii
# Text: as §3, §1
# CRAB isolate AB-23 = format: cell-based, A. baumannii
# Text: as §3, §1
# CRAB isolate AB-03 = format: cell-based, A. baumannii
# Text: as §3, §1
# CRAB isolate AB-17 = format: cell-based, A. baumannii
# Text: as §3, §1
# CRAB isolate AB-04 = format: cell-based, A. baumannii
# Text: as §3, §1
# CRAB isolate AB-22 = format: cell-based, A. baumannii
# Text: as §3, §1
# CRAB isolate AB-02 = format: cell-based, A. baumannii
# Text: as §3, §1
# CRAB isolate AB-09 = format: cell-based, A. baumannii
# Text: as §3, §1
# CRAB isolate AB-15 = format: cell-based, A. baumannii
# Text: as §3, §1
# CRAB isolate AB-16 = format: cell-based, A. baumannii
# Text: as §3, §1
# CRAB isolate AB-08 = format: cell-based, A. baumannii
# Text: as §3, §1
# CRAB isolate AB-13 = format: cell-based, A. baumannii
# Text: as §3, §1
# CRAB isolate AB-20 = format: cell-based, A. baumannii
# Text: as §3, §1
# CRAB isolate AB-12 = format: cell-based, A. baumannii
# Text: as §3, §1
# CRAB isolate AB-21 = format: cell-based, A. baumannii
# Text: as §3, §1
# CRAB isolate AB-06 = format: cell-based, A. baumannii
# Text: as §3, §1
# CRAB isolate AB-10 = format: cell-based, A. baumannii
# Text: as §3, §1
# CRAB isolate AB-14 = format: cell-based, A. baumannii
# Text: as §3, §1
# CRAB isolate AB-19 = format: cell-based, A. baumannii
# Text: as §3, §1
# S. aureus ATCC25923 = format: cell-based
# Method: as §1
# E. faecalis ATCC 29212 = format: cell-based
# Method: as §1
# S. aureus ATCC33592 = format: cell-based
# Method: as §1
# [1] = test system: K. pneumoniae ATCC BAA-1705; format: cell-based
# Method: as §1
# [2] = test system: A. baumannii ATCC BAA-747; format: cell-based
# Method: as §1
# A. baumannii ATCC19606 = format: cell-based
# Method: as §1
# S. aureus ATCC29213 = format: cell-based
# Method: as §1
# [3] = test system: K. pneumoniae ATCCC700603; format: cell-based
# Method: as §1
# P. aeruginosa ATCC27853 = format: cell-based
# Method: as §1
# S. aureus ATCC700698 = format: cell-based
# Method: as §1
# HEK293 = format: cell-based, human; conditions: 72 h
# Method: as §2
# THP-1 = format: cell-based; conditions: 72 h
smiles,measurement,setting,value
CC[C@H](C)[C@H](NC(=O)[C@H](CCCCN)NC(=O)CNC(=O)[C@H](CCCNC(=N)N)NC(=O)[C@H](CCCNC(=N)N)NC(=O)[C@H](CCCCN)NC(=O)[C@H](CC(C)C)NC(=O)[C@H](CC(C)C)NC(=O)[C@H](CCCNC(=N)N)NC(=O)[C@H](CCCCN)NC(=O)[C@H](Cc1c[nH]c2ccccc12)NC(=O)[C@H](CC(C)C)NC(=O)[C@H](C)N)C(=O)N[C@H](C(=O)N[C@@H](CC(C)C)C(=O)N[C@@H](CC(N)=O)C(=O)N[C@@H](CCC(=O)O)C(=O)N[C@@H](CCCNC(=N)N)C(=O)N[C@@H](CC(C)C)C(=O)N[C@@H](CCCNC(=N)N)C(=O)N[C@@H](CC(C)C)C(=O)O)[C@@H](C)CC [T2–02] (H-ALWKRLLKRRGKIILNERLRL-OH),MIC against Gram-positive bacteria (range),Gram-positive bacteria,64 to 256 µg/mL
same,MIC,E. coil ATCC25922,64 µg/mL
same,Cytotoxicity HK-2 related to PMB,HK-2 cells,30.9
same,IC50 HK-2,"HK-2 cells; concentration causing 50% cell death, MTT, 72 h, 37 °C, average of three independent tests in triplicate",557 µg/mL
same,MIC,CRAB isolate AB-01,8 µg/mL
same,MIC,CRAB isolate AB-18,16 µg/mL
same,MIC,CRAB isolate AB-11,8 µg/mL
same,MIC,CRAB isolate AB-05,8 µg/mL
same,MIC,CRAB isolate AB-07,8 µg/mL
same,MIC,CRAB isolate AB-24,8 µg/mL
same,MIC,CRAB isolate AB-23,8 µg/mL
same,MIC,CRAB isolate AB-03,4 µg/mL
same,MIC,CRAB isolate AB-17,8 µg/mL
same,MIC,CRAB isolate AB-04,8 µg/mL
same,MIC,CRAB isolate AB-22,8 µg/mL
same,MIC,CRAB isolate AB-02,8 µg/mL
same,MIC,CRAB isolate AB-09,8 µg/mL
same,MIC,CRAB isolate AB-15,8 µg/mL
same,MIC,CRAB isolate AB-16,16 µg/mL
same,MIC,CRAB isolate AB-08,8 µg/mL
same,MIC,CRAB isolate AB-13,4 µg/mL
same,MIC,CRAB isolate AB-20,8 µg/mL
same,MIC,CRAB isolate AB-12,16 µg/mL
same,MIC,CRAB isolate AB-21,8 µg/mL
same,MIC,CRAB isolate AB-06,8 µg/mL
same,MIC,CRAB isolate AB-10,8 µg/mL
same,MIC,CRAB isolate AB-14,8 µg/mL
same,MIC,CRAB isolate AB-19,8 µg/mL
same,MIC,S. aureus ATCC25923,256 µg/mL
same,MIC,E. faecalis ATCC 29212,64 µg/mL
same,MIC,S. aureus ATCC33592,256 µg/mL
same,MIC,[1],512 µg/mL
same,MIC,[2],8 µg/mL
same,MIC,A. baumannii ATCC19606,8 µg/mL
same,MIC,S. aureus ATCC29213,64 µg/mL
same,MIC,[3],128 µg/mL
same,MIC,P. aeruginosa ATCC27853,8 µg/mL
same,MIC,S. aureus ATCC700698,256 µg/mL
same,IC50 HEK293,HEK293,1101 µg/mL
same,IC50 THP-1,THP-1,866 µg/mL
